# According to ChEMBL document CHEMBL3853353, “Identification and optimization of a new series of anti-tubercular quinazolinones” (Bioorg Med Chem Lett, 2016):
# Calls of active or inactive are those of the source. The rule behind the calls is not given here.
# Test system: Mycobacterium tuberculosis
# Test: Ratio of MIC80 for Mycobacterium tuberculosis H37Rv in presence of 25% human serum to MIC80 for Mycobacterium tuberculosis H37Rv
# Type: functional
# Conditions: not given
row,SMILES,Ratio
1,COc1ccc(CCNc2nc3cc(Cl)ccc3c(=O)n2C)cc1,>10
2,COc1ccc(CCNc2nc3cc(OC)ccc3c(=O)n2C)cc1,>10
3,COc1ccc(CCNc2nc3cc(Cl)ccc3c(=O)n2C)nc1,8
4,Cn1c(NCCc2ccc(-c3ncc(F)cn3)cc2)nc2cc(Cl)ccc2c1=O,30
5,Cn1c(NCCc2ccc(-c3ccc(F)cc3)cn2)nc2cc(Cl)ccc2c1=O,8

# Test system: not listed separately
# Test: Lipophilicity, log P of compound
# Conditions: octanol/water
row,SMILES,logP
1,COc1ccc(CCNc2nc3cc(Cl)ccc3c(=O)n2C)cc1,4.08
2,COc1ccc(CCNc2nc3cc(OC)ccc3c(=O)n2C)cc1,3.1
3,COc1ccc(CCNc2nc3cc(Cl)ccc3c(=O)n2C)nc1,3.32
4,Cn1c(NCCc2ccc(-c3ncc(F)cn3)cc2)nc2cc(Cl)ccc2c1=O,4.46
5,Cn1c(NCCc2ccc(-c3ccc(F)cc3)cn2)nc2cc(Cl)ccc2c1=O,4.23

# Test system: not listed separately
# Test: Permeability in human Caco2 cells
# Conditions: caco-2
row,SMILES,permeability
1,COc1ccc(CCNc2nc3cc(Cl)ccc3c(=O)n2C)cc1,Permeable
2,COc1ccc(CCNc2nc3cc(OC)ccc3c(=O)n2C)cc1,Permeable
3,COc1ccc(CCNc2nc3cc(Cl)ccc3c(=O)n2C)nc1,Permeable
4,Cn1c(NCCc2ccc(-c3ncc(F)cn3)cc2)nc2cc(Cl)ccc2c1=O,Permeable

# Target: T1, Cytochrome P450 3A4 (Homo sapiens, UniProt P08684)
# Test: Inhibition of CYP3A4 in human liver microsomes assessed as 6-beta-hydroxytestosterone metabolite formation using testosterone as substrate incubated for 30 mins by HPLC-MS method
# Conditions: not given
# T1 sequence (P08684 whole entry): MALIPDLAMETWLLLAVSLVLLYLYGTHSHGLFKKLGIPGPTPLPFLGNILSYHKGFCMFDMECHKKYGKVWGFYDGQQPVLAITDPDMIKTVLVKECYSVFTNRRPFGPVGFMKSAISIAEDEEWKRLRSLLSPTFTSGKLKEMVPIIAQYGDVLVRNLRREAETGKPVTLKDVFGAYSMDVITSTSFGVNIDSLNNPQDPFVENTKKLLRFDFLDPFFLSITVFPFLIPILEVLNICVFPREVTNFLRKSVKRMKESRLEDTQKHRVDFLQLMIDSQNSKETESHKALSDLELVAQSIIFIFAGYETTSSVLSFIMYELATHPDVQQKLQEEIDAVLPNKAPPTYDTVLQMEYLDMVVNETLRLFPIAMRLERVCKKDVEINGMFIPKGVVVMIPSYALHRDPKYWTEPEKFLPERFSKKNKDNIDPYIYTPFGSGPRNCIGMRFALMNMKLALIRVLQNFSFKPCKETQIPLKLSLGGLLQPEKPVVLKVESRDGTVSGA
row,SMILES,IC50 [µM]
1,COc1ccc(CCNc2nc3cc(Cl)ccc3c(=O)n2C)cc1,4.3
2,COc1ccc(CCNc2nc3cc(OC)ccc3c(=O)n2C)cc1,10
3,COc1ccc(CCNc2nc3cc(Cl)ccc3c(=O)n2C)nc1,7.4
4,Cn1c(NCCc2ccc(-c3ncc(F)cn3)cc2)nc2cc(Cl)ccc2c1=O,9.9

# Target: hERG (KCNH2) (Homo sapiens, UniProt Q12809)
# Test: Inhibition of human ERG at 10 uM relative to control
# Conditions: not given
# Chain of hERG (KCNH2) (Q12809 whole entry): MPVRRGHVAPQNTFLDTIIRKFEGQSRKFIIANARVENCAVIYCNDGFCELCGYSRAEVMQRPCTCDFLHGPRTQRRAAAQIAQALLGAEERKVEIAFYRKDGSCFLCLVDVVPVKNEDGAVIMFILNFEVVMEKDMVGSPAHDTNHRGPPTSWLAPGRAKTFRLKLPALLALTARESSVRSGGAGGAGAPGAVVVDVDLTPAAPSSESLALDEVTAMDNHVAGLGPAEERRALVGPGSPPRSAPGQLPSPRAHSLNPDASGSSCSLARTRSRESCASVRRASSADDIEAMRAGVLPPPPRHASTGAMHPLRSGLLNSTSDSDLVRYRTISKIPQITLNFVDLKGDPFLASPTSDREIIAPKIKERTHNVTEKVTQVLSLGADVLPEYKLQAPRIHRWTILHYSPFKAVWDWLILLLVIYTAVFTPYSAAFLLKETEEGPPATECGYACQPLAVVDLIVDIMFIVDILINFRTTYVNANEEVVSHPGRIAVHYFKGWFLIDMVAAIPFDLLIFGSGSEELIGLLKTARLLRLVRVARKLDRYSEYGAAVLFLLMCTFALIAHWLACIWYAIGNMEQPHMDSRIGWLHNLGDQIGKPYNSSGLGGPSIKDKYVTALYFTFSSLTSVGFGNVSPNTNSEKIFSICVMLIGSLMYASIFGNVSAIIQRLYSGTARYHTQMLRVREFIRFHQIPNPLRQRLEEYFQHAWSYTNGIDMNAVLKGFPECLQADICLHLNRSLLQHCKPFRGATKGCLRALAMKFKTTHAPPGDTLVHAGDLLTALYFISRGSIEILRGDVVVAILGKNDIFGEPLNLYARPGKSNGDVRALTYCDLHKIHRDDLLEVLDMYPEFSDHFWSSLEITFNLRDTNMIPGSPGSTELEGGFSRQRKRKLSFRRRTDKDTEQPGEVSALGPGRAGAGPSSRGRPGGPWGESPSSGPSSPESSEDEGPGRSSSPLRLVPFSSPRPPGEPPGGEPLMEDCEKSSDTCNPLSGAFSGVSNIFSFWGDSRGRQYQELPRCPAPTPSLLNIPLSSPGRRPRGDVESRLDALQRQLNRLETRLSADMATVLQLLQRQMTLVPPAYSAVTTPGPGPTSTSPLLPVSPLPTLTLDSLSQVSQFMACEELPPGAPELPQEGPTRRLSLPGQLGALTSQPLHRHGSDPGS
row,SMILES,inhibition at 10 µM [%]
1,COc1ccc(CCNc2nc3cc(Cl)ccc3c(=O)n2C)cc1,35

# Test system: not listed separately
# Test: Selectivity index, ratio of IC50 for human HepG2 cells to MIC80 for Mycobacterium tuberculosis H37Rv
# Type: toxicity, cell-based
# Conditions: read-out: Selectivity Index
row,SMILES,selectivity ratio
1,COc1ccc(CCNc2nc3cc(Cl)ccc3c(=O)n2C)cc1,> 10

# Test system: not listed separately
# Test: Drug metabolism in human hepatocytes assessed as demethylation of methoxy group/hydroxylation of distal aryl ring
# Type: ADME, cell-based, Hepatocyte
# Conditions: not given
row,SMILES,Drug metabolism
1,COc1ccc(CCNc2nc3cc(Cl)ccc3c(=O)n2C)cc1,Metabolite_Detected

# Test system: Mycobacterium tuberculosis
# Test: Antimycobacterial activity against Mycobacterium tuberculosis H37Rv incubated for 5 days by Bactiter-Glo assay
# Type: functional
# Conditions: 120 h
row,SMILES,MIC80 [µM]
1,COc1ccc(CCNc2nc3cc(Cl)ccc3c(=O)n2C)cc1,0.038
2,COc1ccc(CCNc2nc3cc(OC)ccc3c(=O)n2C)cc1,0.026
3,COc1ccc(CCNc2nc3cc(Cl)ccc3c(=O)n2C)nc1,0.53
4,Cn1c(NCCc2ccc(-c3ncc(F)cn3)cc2)nc2cc(Cl)ccc2c1=O,0.003
5,Cn1c(NCCc2ccc(-c3ccc(F)cc3)cn2)nc2cc(Cl)ccc2c1=O,0.06

# Test system: Mycobacterium tuberculosis
# Test: Antimycobacterial activity against Mycobacterium tuberculosis H37Rv incubated for 5 days in presence of 25% mouse serum by Bactiter-Glo assay
# Type: functional
# Conditions: 120 h
row,SMILES,MIC80 [µM]
1,COc1ccc(CCNc2nc3cc(Cl)ccc3c(=O)n2C)cc1,0.013

# Test system: Mycobacterium tuberculosis
# Test: Antimycobacterial activity against GFP-tagged Mycobacterium tuberculosis H37Rv infected in mouse RAW264.7 cells incubated for 4 days by Mask blue/Hoechst/FITC staining based fluorescence microscopic analysis
# Type: functional
# Conditions: 96 h
row,SMILES,MIC80 [µM]
1,COc1ccc(CCNc2nc3cc(Cl)ccc3c(=O)n2C)cc1,0.163
2,Cn1c(NCCc2ccc(-c3ncc(F)cn3)cc2)nc2cc(Cl)ccc2c1=O,0.013
3,Cn1c(NCCc2ccc(-c3ccc(F)cc3)cn2)nc2cc(Cl)ccc2c1=O,0.201

# Test system: not listed separately
# Test: Drug metabolism in human liver microsomes assessed as CYP450/FMO-mediated demethylation of methoxy group/hydroxylation of distal aryl ring at 5 uM after 20 mins in presence of NADPH
# Type: ADME
# Conditions: not given
row,SMILES,Drug metabolism
1,COc1ccc(CCNc2nc3cc(Cl)ccc3c(=O)n2C)cc1,Metabolite_Detected

# Test system: Mycobacterium tuberculosis
# Test: Bacteriostatic activity against Mycobacterium tuberculosis H37Rv incubated for 5 days by Bactiter-Glo assay
# Type: functional
# Conditions: not given
row,SMILES,Activity
1,COc1ccc(CCNc2nc3cc(Cl)ccc3c(=O)n2C)cc1,Active

# Test system: Mycobacterium tuberculosis
# Test: Antimycobacterial activity against Mycobacterium tuberculosis H37Rv incubated for 5 days in presence of 25% human serum by Bactiter-Glo assay
# Type: functional
# Conditions: 120 h
row,SMILES,MIC80 [µM]
1,COc1ccc(CCNc2nc3cc(Cl)ccc3c(=O)n2C)cc1,0.43
2,Cn1c(NCCc2ccc(-c3ncc(F)cn3)cc2)nc2cc(Cl)ccc2c1=O,0.39
3,Cn1c(NCCc2ccc(-c3ccc(F)cc3)cn2)nc2cc(Cl)ccc2c1=O,4.02

# Test system: Salmonella typhimurium
# Test: Genotoxicity in Salmonella typhimurium by Ames test
# Type: toxicity, organism-based
# Conditions: salmonella enterica subsp. enterica serovar typhimurium
row,SMILES,Activity
1,COc1ccc(CCNc2nc3cc(Cl)ccc3c(=O)n2C)cc1,Non-Toxic

# Test system: not listed separately
# Test: Aqueous equilibrium solubility of compound in pH 7.4 solution at 20 degC
# Conditions: aqueous pH 7.4 solution
row,SMILES,solubility thermodynamic [µg/mL]
1,COc1ccc(CCNc2nc3cc(Cl)ccc3c(=O)n2C)cc1,≤ 1
2,COc1ccc(CCNc2nc3cc(OC)ccc3c(=O)n2C)cc1,4
3,COc1ccc(CCNc2nc3cc(Cl)ccc3c(=O)n2C)nc1,9
4,Cn1c(NCCc2ccc(-c3ncc(F)cn3)cc2)nc2cc(Cl)ccc2c1=O,< 1

# Test system: not listed separately
# Test: Cytotoxicity against human HepG2 cells assessed as reduction in cell viability after 40 hrs by Celltiter-Glo assay
# Conditions: HepG2 cells
row,SMILES,IC50 at 40 h [µM]
1,COc1ccc(CCNc2nc3cc(Cl)ccc3c(=O)n2C)cc1,13.4
2,COc1ccc(CCNc2nc3cc(OC)ccc3c(=O)n2C)cc1,> 30
3,COc1ccc(CCNc2nc3cc(Cl)ccc3c(=O)n2C)nc1,27
4,Cn1c(NCCc2ccc(-c3ncc(F)cn3)cc2)nc2cc(Cl)ccc2c1=O,> 30
5,Cn1c(NCCc2ccc(-c3ccc(F)cc3)cn2)nc2cc(Cl)ccc2c1=O,0.057

# Test system: Mycobacterium tuberculosis
# Test: Growth inhibition of Mycobacterium tuberculosis H37Rv at 10 uM incubated for 5 days by Bactiter-Glo assay relative to control
# Type: functional
# Conditions: 120 h, read-out: GI
row,SMILES,inhibition of growth at 10 µM [%]
1,COc1ccc(CCNc2nc3cc(Cl)ccc3c(=O)n2C)cc1,> 50

# Target: T1, Cytochrome P450 3A4
# Test: Inhibition of CYP3A4 in human liver microsomes assessed as 1'-hydroxymidazolam metabolite formation using midazolam as substrate incubated for 10 mins by HPLC-MS method
# Conditions: not given
row,SMILES,IC50 [µM]
1,COc1ccc(CCNc2nc3cc(Cl)ccc3c(=O)n2C)cc1,< 1
2,COc1ccc(CCNc2nc3cc(OC)ccc3c(=O)n2C)cc1,< 1
3,COc1ccc(CCNc2nc3cc(Cl)ccc3c(=O)n2C)nc1,< 1
4,Cn1c(NCCc2ccc(-c3ncc(F)cn3)cc2)nc2cc(Cl)ccc2c1=O,> 30

# Test system: not listed separately
# Test: Aqueous equilibrium solubility of compound in pH 1 solution at 20 degC
# Conditions: aqueous pH 1 solution
row,SMILES,solubility thermodynamic [µg/mL]
1,COc1ccc(CCNc2nc3cc(Cl)ccc3c(=O)n2C)cc1,11
2,COc1ccc(CCNc2nc3cc(OC)ccc3c(=O)n2C)cc1,734
3,COc1ccc(CCNc2nc3cc(Cl)ccc3c(=O)n2C)nc1,1140
4,Cn1c(NCCc2ccc(-c3ncc(F)cn3)cc2)nc2cc(Cl)ccc2c1=O,11
